# Results reported in US12163950B2, “Synthetic odorant receptors” (Duke University, priority 2018, dated 2024).
# Experiments:
# Mut-OR10 = assay: cAMP-mediated luciferase reporter gene assay, triple Arg mutant of consensus OR10; type: cell-based, human; details: FIG. 10F
# Procedure: (§1) FIG. 10A-B. Consensus OR1, OR6, OR10 and OR52 are functionally expressed in Hana3A cells, as indicated by cAMP-mediated luciferase assays. (A) Heatmap of ORs responses to 30 uM odorant selected from a previously screened panel of 320 compounds. Luciferase activity was normalized for each OR by setting as 1.0 the highest response value, and 0 as the lowest response value. (B) Dose-response curve of consensus ORs to candidate ligands ranging from 0 to 316 uM or 1 mM. Cells transfected with pCI vector were used as a negative control. Luciferase activity was normalized by setting as 1.0 the highest response value, and 0 as the lowest response value of each experiment. n=3, error bars indicate SEM.
# (§2) FIG. 10C-D-E-F. Improvement of OR expression by mutations in TM1 and Helix 8. (C) Homology model of hOR10. Each TM is highlighted in a colored tubes and residues D511.60, S521.61, H531.62 and E294H8 are represented in licorice (pink). (D) Zoom on the residues 1.60, 1.61, 1.62, H8 mutated for hOR1 (red), hOR10 (blue), hOR51 (green) and hOR52 (pink). […]
# (§3) The consensus ORs already show a clear increase of cell surface expression in comparison to naturally-occurring ORs. […] Experiments evaluated the cell surface expression of the consensus ORs with their corresponding triple Arg mutants, including a well-studied non-olfactory class A GPCR, the muscarinic 3 receptor (M3) (FIG. 10E). […]
# Mut-OR52 = assay: cAMP-mediated luciferase reporter gene assay, triple Arg mutant of consensus OR52; type: cell-based, human; details: FIG. 10F
# Procedure: as §1, §2, §3
SMILES,response of Mut-OR10 compared to consensus OR10 (Mut-OR10),response of Mut-OR10 to its agonist (luciferase activity) (Mut-OR10; dose-response),response of Mut-OR52 to its agonist (luciferase activity) (Mut-OR52)
"CC(=O)/C=C/C1=C(C)CCCC1(C)C [0-ionone, β-ionone]",diminished compared to OR10,responded,
CCCCCCCCC(=O)O [nonanoic acid],,,responded
